In ChEMBL document CHEMBL4033668, “Inhibitors of cytochrome P450 (CYP) 1B1” (Eur J Med Chem, 2017):

Tests used:
Cytochrome P450 1B1 [1] = molecular target: T1, Cytochrome P450 1B1 (Homo sapiens, UniProt Q16678); test: Inhibition of human CYP1B1 expressed in Escherichia coli DH5alpha coexpressing human NADPH-P450 reductase using 4-estradiol as substrate in presence of NADP+ by Michaelis-Menten plot analysis
T1 sequence (Q16678 whole entry): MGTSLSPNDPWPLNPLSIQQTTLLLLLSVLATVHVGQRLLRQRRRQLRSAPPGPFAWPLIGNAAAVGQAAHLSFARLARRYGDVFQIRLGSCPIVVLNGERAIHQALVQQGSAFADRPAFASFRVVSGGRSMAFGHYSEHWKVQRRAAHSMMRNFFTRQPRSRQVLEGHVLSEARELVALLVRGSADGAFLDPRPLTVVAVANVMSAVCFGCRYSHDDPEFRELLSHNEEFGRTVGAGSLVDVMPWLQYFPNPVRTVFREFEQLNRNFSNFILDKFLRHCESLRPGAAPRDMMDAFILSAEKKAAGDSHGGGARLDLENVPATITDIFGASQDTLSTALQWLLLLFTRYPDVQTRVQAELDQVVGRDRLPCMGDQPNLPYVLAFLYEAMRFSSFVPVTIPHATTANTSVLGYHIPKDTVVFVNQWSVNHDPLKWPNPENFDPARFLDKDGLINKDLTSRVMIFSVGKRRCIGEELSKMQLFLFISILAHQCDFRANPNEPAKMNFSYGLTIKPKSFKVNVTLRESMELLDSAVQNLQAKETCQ

Cytochrome P450 1B1 [2] = molecular target: T1, Cytochrome P450 1B1; test: Inhibition of human CYP1B1 expressed in Escherichia coli DH5alpha coexpressing human NADPH-P450 reductase using 4-estradiol as substrate in presence of NADP+ by HPLC analysis
Cytochrome P450 1B1 [3] = molecular target: T1, Cytochrome P450 1B1; test: Inhibition of human CYP1B1 expressed in Escherichia coli DH5alpha coexpressing human NADPH P450 reductase using 7-ethoxyresorufin as substrate in presence of NADP+ by spectrofluorometeric analysis
Cytochrome P450 1B1 [4] = molecular target: T1, Cytochrome P450 1B1; test: Inhibition of CYP1B1 (unknown origin) expressed in Escherichia coli DH5alpha coexpressing human NADPH-P450 reductase using 7-Ethoxyresorufin as substrate up to 6 mins in presence of NADP+ by spectrofluorometric analysis
Cytochrome P450 1B1 [5] = molecular target: T1, Cytochrome P450 1B1; test: Competitive inhibition of CYP1B1 (unknown origin) expressed in yeast microsomes using (-)benzo[a]pyrene-7R-trans-7,8-dihyrodiol (B[a]P-7,8-diol) as substrate
Cytochrome P450 1B1 [6] = molecular target: T1, Cytochrome P450 1B1; test: Inhibition of recombinant human CYP1B1 expressed in Escherichia coli coexpressing human NADPH-cytochrome P450 reductase using 7-ethoxyresorufin as substrate by fluorescence spectrophotometric analysis
Cytochrome P450 1A1 [7] = molecular target: T2, Cytochrome P450 1A1 (Homo sapiens, UniProt P04798); test: Inhibition of recombinant human CYP1A1 expressed in supersomes coexpressing NADPH-CYP reductase using 7-ethoxyresorufin as substrate after 15 mins in presence of NADP+ by Lineweaver-Burk plot analysis; format: ADME
T2 sequence (P04798 whole entry): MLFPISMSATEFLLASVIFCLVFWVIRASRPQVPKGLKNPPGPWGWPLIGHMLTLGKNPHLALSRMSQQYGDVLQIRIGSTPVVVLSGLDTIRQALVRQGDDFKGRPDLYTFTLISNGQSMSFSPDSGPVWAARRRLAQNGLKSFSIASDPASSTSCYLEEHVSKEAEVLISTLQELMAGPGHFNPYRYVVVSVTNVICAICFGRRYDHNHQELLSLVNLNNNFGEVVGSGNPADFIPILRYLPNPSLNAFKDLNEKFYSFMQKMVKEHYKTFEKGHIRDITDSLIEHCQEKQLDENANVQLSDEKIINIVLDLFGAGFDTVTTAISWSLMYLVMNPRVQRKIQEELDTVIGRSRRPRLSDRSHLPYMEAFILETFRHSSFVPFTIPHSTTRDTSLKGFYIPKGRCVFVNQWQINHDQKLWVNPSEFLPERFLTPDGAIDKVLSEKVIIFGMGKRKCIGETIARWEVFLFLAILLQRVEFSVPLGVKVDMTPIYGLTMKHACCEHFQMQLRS

Cytochrome P450 1B1 [8] = molecular target: T1, Cytochrome P450 1B1; test: Inhibition of CYP1B1 in […] recombinant human cytochrome P450 oxidoreductase using 7-ethoxyresorufin as substrate after 3 mins in presence of NADP+ by fluorescence assay
Cytochrome P450 1A1 [9] = molecular target: T2, Cytochrome P450 1A1; test: Competitive inhibition of […] CYP1A1 expressed in supersomes coexpressing NADPH-CYP reductase using 7-Ethoxyresorufin as substrate measured every 5 mins for 30 mins in presence of NADPH by fluorescence assay; format: ADME; settings: read-out: Ki(app)
Cytochrome P450 1A1 [10] = molecular target: T2, Cytochrome P450 1A1; test: Inhibition of recombinant human CYP1A1 expressed in supersomes using 7-ethoxyresorufin O-deethylation as substrate after 5 mins in presence of NADP+ by spectrofluorimetric analysis; format: ADME
Cytochrome P450 1A2 [11] = molecular target: T3, Cytochrome P450 1A2 (Homo sapiens, UniProt P05177); test: Inhibition of recombinant human CYP1A2 expressed in supersomes using 7-ethoxyresorufin O-deethylation as substrate after 5 mins in presence of NADP+ by spectrofluorimetric analysis; format: ADME
T3 sequence (P05177 whole entry): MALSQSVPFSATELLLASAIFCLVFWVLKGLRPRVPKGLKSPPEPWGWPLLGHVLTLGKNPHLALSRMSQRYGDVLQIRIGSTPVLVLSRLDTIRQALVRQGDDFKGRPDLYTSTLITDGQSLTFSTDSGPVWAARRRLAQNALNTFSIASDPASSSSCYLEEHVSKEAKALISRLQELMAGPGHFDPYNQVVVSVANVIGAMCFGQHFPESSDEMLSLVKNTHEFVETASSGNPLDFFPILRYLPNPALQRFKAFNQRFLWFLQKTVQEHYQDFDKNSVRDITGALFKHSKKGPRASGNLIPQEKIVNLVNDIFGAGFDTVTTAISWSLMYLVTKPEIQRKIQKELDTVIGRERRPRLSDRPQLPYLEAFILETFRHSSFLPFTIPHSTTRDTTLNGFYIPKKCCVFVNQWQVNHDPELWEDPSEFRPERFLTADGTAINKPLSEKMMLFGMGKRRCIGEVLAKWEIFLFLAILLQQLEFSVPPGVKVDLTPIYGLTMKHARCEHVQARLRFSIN

Homo sapiens = organism: Homo sapiens; test: Selectivity index, ratio of IC50 for human CYP1A1 expressed in Escherichia coli DH5alpha coexpressing human NADPH P450 reductase to IC50 for human CYP1B1 expressed in Escherichia coli DH5alpha coexpressing human NADPH P450 reductase
Cytochrome P450 1A1 [12] = molecular target: T2, Cytochrome P450 1A1; test: Inhibition of CYP1A1 (unknown origin) expressed in Escherichia coli DH5alpha coexpressing human NADPH-P450 reductase using 7-Ethoxyresorufin as substrate up to 6 mins in presence of NADP+ by spectrofluorometric analysis; format: ADME
Cytochrome P450 1A2 [13] = molecular target: T3, Cytochrome P450 1A2; test: Inhibition of CYP1A2 (unknown origin) expressed in Escherichia coli DH5alpha coexpressing human NADPH-P450 reductase using 7-Ethoxyresorufin as substrate up to 6 mins in presence of NADP+ by spectrofluorometric analysis; format: ADME
Cytochrome P450 1B1 [14] = molecular target: T1, Cytochrome P450 1B1; test: Inhibition of human CYP1B1 expressed in Escherichia coli DH5alpha coexpressing human NADPH P450 reductase using 7-ethoxyresorufin as substrate in presence of NADPH by fluorimetric analysis
Cytochrome P450 1A1 [15] = molecular target: T2, Cytochrome P450 1A1; test: Inhibition of human CYP1A1 expressed in Escherichia coli DH5alpha coexpressing human NADPH P450 reductase using 7-ethoxyresorufin as substrate in presence of NADPH by fluorimetric analysis; format: ADME

In the case of `COc1ccc2cc3[n+](cc2c1OC)CCc1cc2c(cc1-3)OCO2` [BERBERINE], the Ki (Cytochrome P450 1B1 [1]) is reported as 0.044 µM and the IC50 (Cytochrome P450 1B1 [2]) is reported as 0.33 µM.

`O=c1cc(-c2ccccc2)oc2cc(O)ccc12` [7-HYDROXYFLAVONE] showed an IC50 (Cytochrome P450 1B1 [3]) of 0.25 µM.

For `O=c1c(O)c(-c2ccccc2)oc2ccccc12` [FLAVONOL], the IC50 (Cytochrome P450 1B1 [3]) was 0.09 µM.

For `CNCCC(Oc1ccc(C(F)(F)F)cc1)c1ccccc1` (stereo not given) [FLUOXETINE], the IC50 (Cytochrome P450 1B1 [4]) was 475 µM.

In the case of `CC(C)=CCOc1c2ccoc2cc2oc(=O)ccc12` [ISOIMPERATORIN], the Ki (Cytochrome P450 1B1 [5]) is reported as 6 µM.

Compound `O=C1c2ccccc2C(=O)c2c1ccc(O)c2O` [ATHRAQUINONES A] has a Ki (Cytochrome P450 1B1 [6]) of 0.5 µM.

Compound `COc1cc(O)cc(/C=C/c2ccc(O)cc2)c1` has a Ki (Cytochrome P450 1A1 [7]) of 0.13 µM.

`COc1ccc(-c2coc3cc(O)cc(O)c3c2=O)cc1` [BIOCHANIN] gave a Ki (Cytochrome P450 1B1 [8]) of 1.9 µM.

For `C=C(C)[C@@H]1CCC(C)=C[C@H]1c1c(O)cc(CCCCC)cc1O` [CANNABIDIOL], the Ki (Cytochrome P450 1A1 [9]) was 0.15 µM.

With `Cc1cc(Cl)c2c(c1N)C(=O)c1ccccc1C2=O` the IC50 (Cytochrome P450 1A1 [10]) was 0.4 µM and the IC50 (Cytochrome P450 1A2 [11]) was 0.53 µM.

`c1cc2ccc3cccc4ccc(c1)c2c34` was tested, and the Ratio IC50 (Homo sapiens) was 20.5.

Work on `N#C[Se]Cc1cccc(C[Se]C#N)c1` yielded an IC50 (Cytochrome P450 1B1 [4]) of 0.13 to 0.27 µM, an IC50 (Cytochrome P450 1A1 [12]) of 0.1 to 0.45 µM and an IC50 (Cytochrome P450 1A2 [13]) of 0.2 to 1.3 µM.

Compound `N#C[Se]Cc1ccc(C[Se]C#N)cc1` has an IC50 (Cytochrome P450 1B1 [4]) of 0.13 to 0.27 µM, an IC50 (Cytochrome P450 1A1 [12]) of 0.1 to 0.45 µM and an IC50 (Cytochrome P450 1A2 [13]) of 0.2 to 1.3 µM.

With `COc1ccc2cc3[n+](cc2c1OC)CCc1cc(O)c(O)cc1-3` the IC50 (Cytochrome P450 1B1 [2]) was 9.9 µM.

With `C#Cc1cc2ccc3cccc4ccc(c1)c2c34` the IC50 (Cytochrome P450 1B1 [14]) was 0.03 µM and the IC50 (Cytochrome P450 1A1 [15]) was 0.151 µM.

`O=c1cc(-c2ccccc2)oc2cccc(O)c12` [5-HYDROXYFLAVONE] showed an IC50 (Cytochrome P450 1B1 [3]) of 0.21 µM.

Work on `Cc1cc(O)c2c(c1)C(=O)c1cc(O)cc(O)c1C2=O` [EMODIN] yielded an IC50 (Cytochrome P450 1A2 [11]) of 3.73 µM.

`COc1c2ccoc2c(OC)c2oc(=O)ccc12` [ISOPIMPINELLIN] gave a Ki (Cytochrome P450 1B1 [5]) of 11 µM.
